Columns and labels:
TRPV1 [1] = assay: TRPV1 expression in IEC-6/TRPV1+ cells (qRT-PCR, western blot, immunofluorescence); type: cell-based, rat; details: for fluorescence intensity of TRPV1: pre-treatment 24 h, NOVO 10 μM, SB-705498 0.1 μM, Figure 2G
Experimental: The IEC-6/TRPV1^+ cells were cultured on coverslips in 24-well plates overnight. Briefly, cells were stimulated with NOVO (10 μM), SB-705498 (0.1 μM) for 24 h. At the end of incubation, cells were fixed with 4% paraformaldehyde in 0.1 M PBS for 20 min. The cells were then treated by 0.25% (v/v) TritonX-100 for 5 min, and washed again. Followed by blocking in 5% (v/v) horse serum for 60 min, cells were then incubated with primary antibodies for the anti-TRPV1 receptor antibody (1:1000, NB100-1617, Novus) overnight in a 4°C refrigerator. Alexa Flour® 488-conjugated goat anti-rabbit IgG (Zhongshan Goldenbridge Biotechnology) at 1:100 dilution was used as the secondary antibody that incubated cells for 60 min. Thereafter, the coverslips were mounted face down onto slides with mounting medium containing DAPI and stored at 4°C before microscopy. Fluorescence images were captured using a fluorescence microscope (Olympus, Japan).
(§1) qRT-PCR was performed to evaluate TRPV1 mRNA expression after NOVO treatment. The total RNA of the cells or tissues was isolated with an RNA isolation plus kit (Takara Shuzo, Kyoto, Japan), according to the manufacturer’s protocol. The quality of RNA was confirmed by agarose gel electrophoresis and an optical density measurement of A260/A280. The cDNAs were prepared using SYBR® Premix Ex Taq^TMII (Takara Shuzo, Kyoto, Japan) and the following primers: 5′-[…]-3′ and 5′-[…]-3′ for TRPV1, and 5′-[…]-3′, 5′-[…]-3′ for GAPDH were carried out by using the LightCycler480 System. The relative expression was calculated by the 2^-ΔΔC(t) method ([Livak and Schmittgen, 2001]).
(§2) After treatment, the cells or tissues were collected and washed with PBS. Membrane protein extracts were obtained with Membrane Protein Extraction Kit (Thermo Fisher Scientific Inc, United States), according to the manufacturer’s protocol. Protein concentrations were quantified by using the BCA Protein Assay kit (Beyotime, Shanghai, China). Equal amounts of protein were resolved by SDS-PAGE on a 10% polyacrylamide gel and transferred onto a polyvinylidene fluoride membrane. […]

[2] = test system: rat intestine (jejunum, ileum, colon); assay: Ussing chamber intestinal permeability of NOVO; type: in vitro ADME; details: jejunum vs ileum and colon; Figure 1
Experimental: The intestinal permeability of CAP in vitro was performed using Ussing chamber. […] NOVO was also prepared in HEPES buffer to yield final concentration at 5, 10, 25, 50, 100, and 200 μM. Animal intestinal segments for the permeability study were prepared in accordance with the experimental method as described previously ([Yodoya et al., 1994]; [Wallon et al., 2005]; [Duan et al., 2013]). Briefly, male SD rats, weighting 240–260 g, were fasted for 18 h before each experiment and anesthetized by injecting 10 % chloral hydrate anesthesia (i.p.). Different portions of the rat intestine were excised and flushed with HEPES buffer, including jejunum (after the first 5 cm of the top of small intestine), ileum (the distal part of small intestine) and colon (proximal to cecal-colonic junction), and incubated in the ice-cold HEPES buffer. Next, 3–4 cm of the intestine was clipped, and the serosa was removed rapidly on an ice-cold glass. The intestinal segments were fixed in the Ussing chamber. Finally, 7 mL of HEPES buffer was added to the receiving side while an equal volume of drug solution to the dosing side. All the chambers were maintained at 37°C by using a warm water-circulating pump and a mixture of 95% O2 and 5% CO2 aerated to ensure the activity of the membrane. […]

TRPV1 [3] = assay: TRPV1 mRNA and protein expression in rat intestine after oral administration (qRT-PCR, western blot); type: in vivo
Experimental: Forty male SD rats (200–250 g) were used for orally administered experiment. The animals were arbitrarily distributed in eight different groups and each group was treated with its respective dose of calculated amount. Group I was orally administered 0.9% normal saline (5 mL⋅kg^-1). Group II labeled as positive control was orally administered with 10 μM RR (5 mL⋅kg^-1). Rats of Group […] were treated with 5 mL⋅kg^-1 of NOVO dissolved in 0.9% normal saline (5, 10, 25, and 50 μM, respectively). The animals were orally administered twice a day for 2 weeks. After another 14 days, animals were sacrificed and then the jejunum, ileum and colon tissue were excised. The intestinal tissues were frozen in liquid nitrogen, and then stored at -80°C for protein or ribonucleic acid (RNA) isolation.
as §1, §2

[4] = test system: rat intestine (jejunum, ileum, colon); assay: Ussing chamber intestinal permeability of CAP; type: in vitro ADME; details: for fold-inhibition factor of CAP Papp: vs CAP only
Experimental: NOVO was also prepared in HEPES buffer to yield final concentration at 5, 10, 25, 50, 100, and 200 μM. […] Different portions of the rat intestine were excised and flushed with HEPES buffer, including jejunum (after the first 5 cm of the top of small intestine), ileum (the distal part of small intestine) and colon (proximal to cecal-colonic junction), and incubated in the ice-cold HEPES buffer. Next, 3–4 cm of the intestine was clipped, and the serosa was removed rapidly on an ice-cold glass. The intestinal segments were fixed in the Ussing chamber. Finally, 7 mL of HEPES buffer was added to the receiving side while an equal volume of drug solution to the dosing side. […] All the samples were kept at -20°C till HPLC analysis.
In brief, samples were injected into a C18 column (3.5 μm, 2.1 mm × 100 mm). An aliquot of 20 μL of sample solutions were injected.

## CO[C@@H]1[C@@H](OC(N)=O)[C@@H](O)[C@H](Oc2ccc3c(O)c(NC(=O)c4ccc(O)c(CC=C(C)C)c4)c(=O)oc3c2C)OC1(C)C [NOVO, novobiocin]
TRPV1 [1]; 2.5-10 μM NOVO, over 24 h, Figures 2A,B,F
  expression of TRPV1 mRNA and protein: dramatically attenuate
TRPV1 [1]
  fluorescence intensity of TRPV1: reduced
[2]
  permeability of NOVO across intestinal segments: much greater in the jejunum than in the ileum and colon
TRPV1 [3]; 5 μM NOVO p.o., western blot
  TRPV1 protein expression in rat intestine: not sufficient to attenuate TRPV1 protein expression
TRPV1 [3]; 14 days p.o. NOVO 5-50 μM twice per day, jejunum, ileum, colon, Figure 2D
  TRPV1 mRNA level in rat intestine: decreased markedly
TRPV1 [3]; 14 days p.o. NOVO twice per day, western blot, Figure 2E
  TRPV1 protein level in rat intestine: decreased the TRPV1 protein level in a dose-dependent manner
[4]; NOVO concentration higher than 100 μM, data not shown
  permeability of CAP in the Ussing chamber experiment: increased
[4]; colon, CAP + 5 μM inhibitor
  Papp of CAP: 8.28 ± 2.55 ×10^-6, cm⋅s^-1
  fold-inhibition factor of CAP Papp: 2.41 fold
[4]; colon, CAP + 10 μM inhibitor
  Papp of CAP: 6.05 ± 1.85 ×10^-6, cm⋅s^-1
  fold-inhibition factor of CAP Papp: 3.30 fold
[4]; colon, CAP + 25 μM inhibitor
  Papp of CAP: 5.65 ± 2.04 ×10^-6, cm⋅s^-1
  fold-inhibition factor of CAP Papp: 3.54 fold
[4]; colon, CAP + 50 μM inhibitor
  Papp of CAP: 9.79 ± 2.20 ×10^-6, cm⋅s^-1
  fold-inhibition factor of CAP Papp: 2.04 fold
[4]; ileum, CAP + 5 μM inhibitor
  Papp of CAP: 3.40 ± 0.76 ×10^-6, cm⋅s^-1
  fold-inhibition factor of CAP Papp: 2.17 fold
[4]; ileum, CAP + 10 μM inhibitor
  Papp of CAP: 2.17 ± 0.58 ×10^-6, cm⋅s^-1
  fold-inhibition factor of CAP Papp: 3.40 fold
[4]; ileum, CAP + 25 μM inhibitor
  Papp of CAP: 4.02 ± 0.42 ×10^-6, cm⋅s^-1
  fold-inhibition factor of CAP Papp: 1.83 fold
[4]; ileum, CAP + 50 μM inhibitor
  Papp of CAP: 5.23 ± 0.25 ×10^-6, cm⋅s^-1
  fold-inhibition factor of CAP Papp: 1.41 fold
[4]; jejunum, CAP + 5 μM inhibitor
  Papp of CAP: 1.96 ± 0.25 ×10^-6, cm⋅s^-1
  fold-inhibition factor of CAP Papp: 1.60 fold
[4]; jejunum, CAP + 10 μM inhibitor
  Papp of CAP: 1.36 ± 0.47 ×10^-6, cm⋅s^-1
  fold-inhibition factor of CAP Papp: 2.31 fold
[4]; jejunum, CAP + 25 μM inhibitor
  Papp of CAP: 1.60 ± 0.38 ×10^-6, cm⋅s^-1
  fold-inhibition factor of CAP Papp: 1.97 fold
[4]; jejunum, CAP + 50 μM inhibitor
  Papp of CAP: 2.11 ± 0.04 ×10^-6, cm⋅s^-1
  fold-inhibition factor of CAP Papp: 1.49 fold

## O=C(Nc1ccccc1Br)N[C@@H]1CCN(c2ccc(C(F)(F)F)cn2)C1 [SB-705498]
TRPV1 [1]
  fluorescence intensity of TRPV1: reduced

Reference: article PMC6196238, “Novobiocin, a Newly Found TRPV1 Inhibitor, Attenuates the Expression of TRPV1 in Rat Intestine and Intestinal Epithelial Cell Line IEC-6” (Frontiers in Pharmacology, 2018)
